In one data set the target is human serum paraoxonase (Homo sapiens, UniProt P27169). Description: Hydrolysis by human serum paraoxonase (enzymatic hydrolysis test method). It counts as in vitro ADME. The settings on record: 5% bovine serum albumin, 20 mM CaCl2, 37° C. The procedure: The compounds herein have relatively short half-lives in blood in vitro. A test method for determining the half-life of the compounds under defined enzymatic hydrolysis conditions in vitro is now described. The test method is believed to provide a suitable indicator as to effects in vivo. In the test method, the hydrolysis of test compounds by a lactonase enzyme is monitored using RP HPLC with UV detection.
The ‘enzymatic hydrolysis test method’ is as follows: Incubations are carried out in 1 ml volumes in an aqueous medium containing 5% bovine serum albumin in the presence of 20 mM CaCl2. The solutions are preincubated at 37° C. for 5 minutes before the addition of the test compound (5 μl of a 5 mg/ml solution in DMSO) and then lactonase enzyme (10 μl to the 1 ml incubations). Control incubations containing no enzyme are also included. The enzymatic hydrolysis is monitored by removal of aliquots and quenching the reaction by the addition of an equal volume of acetonitrile. The samples are vortex mixed, then centrifuged and the supernatants are transferred to autosampler vials for HPLC analysis.
In a suitable HPLC procedure, aliquots (20 μl) of the supernatants are injected onto a Zorbax Rx C8 column (250×4.6mm; Hichrom). The column is maintained at 40° C. and eluted at a flow rate of 1.0 mL/min with a mobile phase of acetonitrile: 50 mM ammonium formate (65:35) adjusted to pH 4.2 with formic acid. Detection is by UV absorbance at 240 nm, and chromatographic peak areas for both parent and metabolite are measured.
In a preferred aspect, the half-life of each compound may be determined by a method in which peak areas are plotted against time on a log-linear scale, and the half lives determined by extrapolation or interpolation of a straight line joining two points.
The above described ‘enzymatic hydrolysis test method’ employs lactonase enzyme. Suitable forms of lactonase enzyme include human serum paraoxonase or a recombinant form thereof, or purified lactonase, obtained from human plasma as described hereinafter. Purification of human serum paraoxonase is described by C E Furlong et al, Chem.Biol.Interactions, Vol 87, p35-48, (1993) and recombinant human serum paraoxonase is described in International Patent application No. WO 96/01322
The susceptibility to hydrolysis by human serum paraoxonase of certain of the compounds of the Examples was assessed using the test protocol of the ‘enzymatic hydrolysis test method’ described herein.

A short description of data set [1]: Stability in human lung S9. It counts as in vitro ADME. The following applies: human lung S9 diluted 1:1 with phosphate buffer pH 7.4, NADPH, 37° C. As for the experimental part:
The stability of the compound of Examples 4 and 6 in a model human lung environment was assessed using the following test protocol: Incubations were carried out, at 37° C., in 500 μL volumes of human lung S9 diluted 1:1 with 10 mM phosphate buffer pH 7.4 to which was added 50 μl of 30 mg/ml (Aq) NADPH. The reactions were started by the addition of 5 μl of test compound (nominally 5 mg/ml solution in DMSO). Aliquots (100 μl) were removed immediately and after 1 hour and mixed with an equal volume of acetonitrile to stop the reaction. Samples were centrifuged and the supernatants were transferred to autosampler vials for HPLC analysis and half-life analysis using methods identical to those described in the ‘stability in human plasma’ test protocol described above. Control incubations containing no lung S9 were also included.

The nature of data set [2]: Stability in human plasma test method. It counts as in vitro ADME. The settings on record: 37° C. As for the experimental part:
The stability of various of the compounds of the Examples in human plasma was tested using the following ‘stability in human plasma’ test method: 500 μl aliquots of human plasma in screw capped polypropylene tubes were preincubated at 37° C. in a waterbath for 5 minutes. The plasma samples were then spiked with 5 μl of test compound (nominally 5 mg/ml in DMSO). Aliquots (100 μl ) were removed immediately and after 5 minutes and mixed with an equal volume of acetonitrile. The samples were centrifuged and the supernatants were transferred to autosampler vials for HPLC and half-life analysis.
In the HPLC procedure, aliquots (20 μl) of all the supernatants were injected onto a Zorbax Rx C8 column (250×4.6mm; Hichrom). The column was maintained at 40° C. and eluted at a flow rate of 1.0 mL/min with a mobile phase of acetonitrile: 50 mM ammonium formate (65:35) adjusted to pH 4.2 with formic acid. Detection was by UV absorbance at 240 nm, and chromatographic peak areas for both parent and metabolite were measured
To determine the half-life, for each compound peak areas were plotted against time on a log-linear scale, and the half lives determined by extrapolation or interpolation of a straight line joining two points.

In data set [3] the target is T1, Human Glucocorticoid Receptor (Homo sapiens, UniProt P04150).
T1 construct: endogenous in cells; host or cells: HeLa cells stably transfected with an MMTV-LTR sPAP reporter
T1 sequence (P04150 1-777): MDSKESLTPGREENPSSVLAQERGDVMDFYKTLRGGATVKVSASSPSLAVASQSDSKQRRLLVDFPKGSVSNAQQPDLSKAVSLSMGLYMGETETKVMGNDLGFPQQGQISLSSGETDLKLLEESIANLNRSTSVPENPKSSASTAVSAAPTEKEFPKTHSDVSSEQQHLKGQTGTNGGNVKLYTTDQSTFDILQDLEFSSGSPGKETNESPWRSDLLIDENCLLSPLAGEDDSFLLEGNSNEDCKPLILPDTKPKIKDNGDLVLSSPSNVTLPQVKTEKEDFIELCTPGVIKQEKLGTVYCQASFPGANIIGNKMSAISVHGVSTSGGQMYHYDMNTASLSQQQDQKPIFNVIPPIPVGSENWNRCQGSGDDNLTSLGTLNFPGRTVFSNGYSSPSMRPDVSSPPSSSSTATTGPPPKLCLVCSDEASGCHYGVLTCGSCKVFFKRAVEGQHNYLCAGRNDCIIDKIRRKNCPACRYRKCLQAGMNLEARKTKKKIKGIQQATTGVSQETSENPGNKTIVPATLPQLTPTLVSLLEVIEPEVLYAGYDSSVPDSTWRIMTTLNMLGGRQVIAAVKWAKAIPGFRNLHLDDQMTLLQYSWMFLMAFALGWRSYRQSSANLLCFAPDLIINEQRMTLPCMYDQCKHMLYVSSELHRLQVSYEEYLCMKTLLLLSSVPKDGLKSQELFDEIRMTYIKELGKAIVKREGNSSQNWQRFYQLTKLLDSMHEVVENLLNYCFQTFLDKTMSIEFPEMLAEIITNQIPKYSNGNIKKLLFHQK
Description: Functional in vitro glucocorticoid activity assay: Hela cells stably transfected with sPAP reporter gene under MMTV LTR promoter. The settings on record: 72 hours incubation, values given as 'less than (about)', read-out: EC50 (sPAP transcription, glucocorticoid activity). It counts as cell-based. An excerpt: The functional assay used was a modification of the method described by T. S Berger et al, of J. of Steroid Biochem. Molec. Biol. 1992, 41 (3-8), 733-738, “Interaction of Glucocorticoid analogues with the Human Glucocorticoid Receptor”. Thus, Hela cells were stably transfected with a detectable reporter gene (secreted placental alkaline phosphatase, sPAP) under the control of a glucocorticoid response promoter (the LTR of the mouse mammary tumour virus, MMTV). Various concentrations of standard (dexamethasone) or compounds of the invention were incubated with transfected Hela cells for 72 hours. At the end of the incubation, substrate ([…]) for sPAP was added and the product measured by a spectrophotometric method. Increased absorbance reflected increased sPAP transcription and concentration-response lines were constructed such that EC50-values could be estimated.
For orientation: A reporter such as luciferase makes a cellular process visible.

pEC50: −log10 of the molar value.

Experimental findings from US20020019378A1, “COMPOUNDS” (priority 1997, published 2002) are described below.

For orientation: half-life means how long it takes for the measured level to halve. By pEC50 is commonly meant the negative decadic logarithm of the EC50, by convention in mol/L.

Chain of human serum paraoxonase (P27169 whole entry): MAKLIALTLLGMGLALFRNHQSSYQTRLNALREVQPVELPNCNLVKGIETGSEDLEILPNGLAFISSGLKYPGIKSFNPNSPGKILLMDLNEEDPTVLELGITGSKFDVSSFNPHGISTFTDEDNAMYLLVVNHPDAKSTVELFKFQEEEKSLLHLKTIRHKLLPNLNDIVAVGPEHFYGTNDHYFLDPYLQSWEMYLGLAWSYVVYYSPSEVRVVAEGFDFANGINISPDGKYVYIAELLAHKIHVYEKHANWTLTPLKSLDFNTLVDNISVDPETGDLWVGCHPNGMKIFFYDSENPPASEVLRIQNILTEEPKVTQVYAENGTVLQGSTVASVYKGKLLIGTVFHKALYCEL

As for `CC12CCC(=O)C=C1C(F)CC1C3CC4OC(CSC5CCOC5=O)OC4(C(=O)CO)C3(C)CC(O)C12F` (stereo not drawn) [Example 4, 6α,9α-Difluoro-11β,21-dihydroxy-16α, 17α-[2-(2-oxo-tetrahydro-furan-3-yl)sulfanyl]ethylidenedioxy-pregn-4-ene-3,20-dione], the “Hydrolysis by human serum paraoxonase” value on human serum paraoxonase is listed as “hydrolysed”. In data set [1], this molecule displayed a half-life at 45 µg/mL greater than 60 min. The molecule further had a half-life at 49.5 µg/mL in data set [2] of less than 10 min. The negative logarithm of the EC50 (pEC50) in data set [3] was greater than 6.60.
In data set [1], `Nc1c(Cl)cc(C(O)CNCCCSC2CCOC2=O)cc1Cl.O=C(O)C(F)(F)F` (stereo not drawn) [Example 6, 3-[3-[2-(4-Amino-3,5-dichlorophenyl)-2-hydroxyethylamino]propylsulfanyl]-dihydro-furan-2-one trifluoroacetate] gave a half-life at 45 µg/mL greater than 60 min. The molecule further came in with a half-life at 49.5 µg/mL in data set [2] of less than 10 min.
